Measurements as given in patent US8901175B2 (priority 2008, dated 2014).
Structures can show the parent of a compound that is named as a salt. Residues, ends and D or L forms follow the SMILES beside them. *: point of attachment. Cbz = O=C(OCc1ccccc1)*; CH2F = FC*

How the values were obtained:
CEM cells = experiment: Inhibition of methadone induced apoptosis by zVAD.fmk in CEM cells; format: cell-based, human; settings: 50 μM zVAD.fmk, preincubated 1 h before methadone
HL-60 cells = experiment: Inhibition of methadone induced apoptosis by zVAD.fmk in HL-60 cells; format: cell-based, human; settings: 50 μM zVAD.fmk, preincubated 1 h before methadone
[1] = tested on: Human acute myeloid leukaemia HL-60 cell line; experiment: Induction of apoptosis in HL-60 cell line (5000 cells/100 μl), long incubation, flow cytometry; format: cell-based
[2] = tested on: human lymphoblastic leukaemia T-cell line CEM; experiment: Induction of apoptosis in CEM cells, flow cytometry (hypodiploid DNA); format: cell-based; settings: 30, 20, 15, 10 μM methadone, 24 h and 48 h
[3] = tested on: human myeloid leukaemia cell line HL-60; experiment: Induction of apoptosis in HL-60 cells, flow cytometry (hypodiploid DNA); format: cell-based; settings: 30, 20, 15, 10 μM methadone, 24 h and 48 h
[4] = tested on: doxorubicin-resistant CEM leukaemia cells (CEM^DoxoR); experiment: Induction of apoptosis in doxorubicin-resistant CEM cells; format: cell-based, human; settings: 30, 20, 15 μM methadone, 24 h and 48 h
[5] = tested on: CD95-resistant leukaemia cells CEM^CD95R; experiment: Induction of apoptosis in CD95-resistant CEM cells; format: cell-based, human; settings: 30, 20, 15 μM methadone, 24 h and 48 h
HL-60 leukaemia cells = experiment: Western blot analysis in HL-60 cells; format: cell-based, human; settings: 20, 15 μM methadone, 24 h and 48 h
CEM leukaemia cells = experiment: Western blot analysis in CEM cells; format: cell-based, human; settings: 20, 15 μM methadone, 24 h and 48 h
[6] = tested on: doxorubicin-resistant leukaemia cells CEM^DoxoR; experiment: Western blot analysis in CEM^DoxoR cells; format: cell-based, human; settings: 20, 15 μM methadone, 24 h and 48 h
[7] = tested on: CD95-resistant leukaemia cells CEM^CD95R; experiment: Western blot analysis in CEM^CD95R cells; format: cell-based, human; settings: 20, 15 μM methadone, 24 h and 48 h
leukaemia cells = experiment: Western blot analysis in leukaemia cells (caspase-8, Bax, CD95); format: cell-based, human
Description: Western blot analyses were done as described (Friesen et al. 2004, Friesen et al. 2003). Immunodetection of PARP, caspase-3, caspase-9, caspase-8, XIAP, CD95, CD95-L, Bax, Bcl-xL and β-actin was done using rabbit anti-PARP polyclonal antibody (1:5000, Roche), mouse-anti-caspase-3 monoclonal antibody (1:1000, Cell-Signalling), mouse-anti-caspase-8 monoclonal antibody (1:1000, Cell-Signalling), rabbit- anti-active-caspase-9 polyclonal antibody (1:1000, Cell-Signalling), mouse-anti-XIAP monoclonal antibody (1:1000, Transduction-Laboratories, Lexington, Ky.), mouse-anti-Fas (anti-CD95) monoclonal antibody (1:1000, Transduction-Laboratories), mouse-anti-Fas ligand (anti-CD95-ligand) monoclonal antibody (1:250, BD, Pharmingen), rabbit-anti-Bax polyclonal antibody (1:250, Oncogene, Cambridge), rabbit-anti-Bcl-XS/L. polyclonal antibody (1:1000, Santa-Cruz-Biotechnology, Santa-Cruz, Calif.), rabbit-anti-p21 polyclonal antibody (1:1000, Santa-Cruz), and mouse anti-β-actin monoclonal antibody (Sigma). Peroxidase-conjugated goat-anti-mouse IgG or peroxidase-conjugated goat-anti-rabbit IgG (1:5000, Santa-Cruz) as secondary antibody were used for the enhanced chemoluminescence system (ECL, Amersham-Pharmacia, Freiburg, Germany). Equal protein loading was controlled by β-actin detection.

[8] = tested on: human glioblastoma cell line A172; experiment: Induction of apoptosis in A172 glioblastoma cells, flow cytometry; format: cell-based
[9] = tested on: B-ALL (B-Cell lymphatic leukaemia) cells; experiment: Induction of apoptosis in B-ALL cells isolated from patients ex vivo; format: cell-based, human; settings: B-ALL patient cells; 10 μM methadone; 72 h
[10] = leukaemia cells after methadone treatment
[11] = 1 μg/mL methadone in addition of 0.1 μg/mL doxorubicin, 72 h

CC(C)[C@H](NC(=O)OCc1ccccc1)C(=O)N[C@@H](C)C(=O)N[C@@H](CC(=O)O)C(=O)CF [zVAD.fmk, benzoyl carbonyl-Val-Ala-Asp-fluoromethyl ketone] (Cbz-Val-Ala-Asp-CH2F)
inhibition of methadone-induced apoptosis (CEM cells): almost completely inhibited
inhibition of methadone-induced apoptosis (HL-60 cells): almost completely inhibited

CN1CC[C@]23c4c5ccc(O)c4O[C@H]2[C@@H](O)C=C[C@H]3[C@H]1C5 [morphine, Morphine]
apoptosis, cells ([1]; HL-60, first study, 40 μg/mL morphine, 144 h): 40%
apoptosis, cells ([1]; HL-60, second study, 1 μg/mL morphine, 168 h): more than 50%
apoptosis, cells ([1]; HL-60, third study, 1 μg/mL morphine in combination with 0.001 μg/mL doxorubicin, 168 h): 50%

CCC(=O)C(CC(C)N(C)C)(c1ccccc1)c1ccccc1 (racemic) [methadone, D, L-methadone hydrochloride]
induction of apoptosis [2]: strong induction of apoptosis
induction of apoptosis [3]: strong induction of apoptosis
induction of apoptosis [4]: strong induction of apoptosis
induction of apoptosis [5]: strong induction of apoptosis
down regulation of Bcl-xL (HL-60 leukaemia cells): strong down regulation
down regulation of XIAP (HL-60 leukaemia cells): strong down regulation
down regulation of Bcl-xL (CEM leukaemia cells): strong down regulation
down regulation of XIAP (CEM leukaemia cells): strong down regulation
down regulation of Bcl-xL [6]: strong down regulation
down regulation of XIAP [6]: strong down regulation
down regulation of Bcl-xL [7]: strong down regulation
down regulation of XIAP [7]: strong down regulation
Activation of caspase-8 (leukaemia cells; [10]): not found
Up regulation of Bax (leukaemia cells; [10]): not found
up regulation of death-inducing ligands and death-inducing receptors such as CD95 (leukaemia cells; leukaemia cells after methadone treatment (data not shown)): not found
apoptotic effect of the combination with doxorubicin [8, 11]: strong apoptotic effect
synergy with doxorubicin [8, 11]: synergistic effects
dead cells (specific cell death) ([8]; 20 μg/mL methadone, 120 h): more than 20%
dead cells (specific cell death) ([8]; 20 μg/mL methadone, 168 h): more than 80%
dead cells (specific cell death) ([8]; 30 μg/mL methadone, 120 h): more than 85%
dead cells (specific cell death) ([8]; 30 μg/mL methadone, 168 h): ~100%
apoptosis, cells [9]: over 80%
